Tests used:
[1] = for speed of sound: 100 kPa, Pulse-echo method; for speed of sound / viscosity / mass density: Liquid; for viscosity / mass density: 101 kPa; for viscosity: Concentric cylinders viscometry; for mass density: Vibrating tube method; for surface tension liquid-gas: 294.7 K, Drop volume
[2] = xn = mol fraction of the nth substance listed; conditions: x2 = 0; for speed of sound: 100 kPa, Pulse-echo method; for speed of sound / viscosity / mass density: Liquid; for viscosity / mass density: 101 kPa; for viscosity: Concentric cylinders viscometry; for mass density: Vibrating tube method; for surface tension liquid-gas: 294.7 K, Drop volume

CC(CC(C)(C)C)CC(C)(C)CC(C)(C)C (configuration not stated) [2,2,4,4,6,8,8-heptamethylnonane]
[1]
Conditions | mass density [kg/m3] | speed of sound [m/s] | viscosity [mPa·s]
293.15 K | 784.457 | 1285.7 | 3.7
303.15 K | 777.761 | 1248.5 | 2.92
313.15 K | 771.044 | 1211.8 | 2.37
323.15 K | 764.316 | 1176 | 1.95
333.15 K | 757.571 | 1140.8 | 1.63
343.15 K | 750.7 | – | 1.39
353.15 K | 743.8 | – | 1.19
363.15 K | 736.8 | – | 1.04
373.15 K | 729.9 | – | 0.914

Conditions | surface tension liquid-gas [mN/m]
[1] | 24

CC(CC(C)(C)C)CC(C)(C)C [2,2,4,6,6-pentamethylheptane]
[1]
Conditions | speed of sound [m/s]
293.15 K | 1203.6
303.15 K | 1164.8
313.15 K | 1126.7
323.15 K | 1089.3
333.15 K | 1052.5

Conditions | surface tension liquid-gas [mN/m]
[1] | 21.8

CCCCCCCCCCCC [dodecane]
[1]
Conditions | mass density [kg/m3] | speed of sound [m/s] | viscosity [mPa·s]
293.15 K | 748.893 | 1297.6 | 1.49
303.15 K | 741.635 | 1259.3 | 1.25
313.15 K | 734.349 | 1221.4 | 1.06
323.15 K | 727.038 | 1184.2 | 0.916
333.15 K | 719.691 | 1147.5 | 0.799
343.15 K | 712.2 | – | 0.704
353.15 K | 704.7 | – | 0.625
363.15 K | 697.1 | – | 0.56
373.15 K | 689.6 | – | 0.506

Conditions | surface tension liquid-gas [mN/m]
[1] | 25.3

CCCCCCCCCCCC [dodecane] + CC(CC(C)(C)C)CC(C)(C)C
[2]
Conditions | mass density [kg/m3] | speed of sound [m/s] | viscosity [mPa·s]
293.15 K | 748.893 | 1297.6 | 1.49
303.15 K | 741.635 | 1259.3 | 1.25
313.15 K | 734.349 | 1221.4 | 1.06
323.15 K | 727.038 | 1184.2 | 0.916
333.15 K | 719.691 | 1147.5 | 0.799
343.15 K | 712.2 | – | 0.704
353.15 K | 704.7 | – | 0.625
363.15 K | 697.1 | – | 0.56
373.15 K | 689.6 | – | 0.506

Conditions | surface tension liquid-gas [mN/m]
[2] | 25.3

CCCCCCCCCCCC [dodecane] + CC(CC(C)(C)C)CC(C)(C)CC(C)(C)C
[2]
Conditions | mass density [kg/m3] | speed of sound [m/s] | viscosity [mPa·s]
293.15 K | 748.893 | 1297.6 | 1.49
303.15 K | 741.635 | 1259.3 | 1.25
313.15 K | 734.349 | 1221.4 | 1.06
323.15 K | 727.038 | 1184.2 | 0.916
333.15 K | 719.691 | 1147.5 | 0.799
343.15 K | 712.2 | – | 0.704
353.15 K | 704.7 | – | 0.625
363.15 K | 697.1 | – | 0.56
373.15 K | 689.6 | – | 0.506

Conditions | surface tension liquid-gas [mN/m]
[2] | 25.3

— the NIST ThermoML archive (doi:10.1021/je5000132)
